Among the data in ChEMBL document CHEMBL1909046, “DrugMatrix in vitro pharmacology data” are IC50 and Ki values, retold here.

Series [1] deals with 5-hydroxytryptamine receptor 1B (Rattus norvegicus, UniProt P28564). Type of series: cell membranes, Wistar, Cerebral cortex, Membrane. To be noted: for Ki: read-out: Ki.
Another series concerns the target Cytochrome P450 2E1 (Homo sapiens, UniProt P05181). To be noted: bti-tn-5b1-4. Also: in other assays of this panel Not Active means under 50% inhibition at 10 µM.
Series [2] addresses T1, Alpha-2C adrenergic receptor (Homo sapiens, UniProt P18825).
T1 sequence (P18825 whole entry): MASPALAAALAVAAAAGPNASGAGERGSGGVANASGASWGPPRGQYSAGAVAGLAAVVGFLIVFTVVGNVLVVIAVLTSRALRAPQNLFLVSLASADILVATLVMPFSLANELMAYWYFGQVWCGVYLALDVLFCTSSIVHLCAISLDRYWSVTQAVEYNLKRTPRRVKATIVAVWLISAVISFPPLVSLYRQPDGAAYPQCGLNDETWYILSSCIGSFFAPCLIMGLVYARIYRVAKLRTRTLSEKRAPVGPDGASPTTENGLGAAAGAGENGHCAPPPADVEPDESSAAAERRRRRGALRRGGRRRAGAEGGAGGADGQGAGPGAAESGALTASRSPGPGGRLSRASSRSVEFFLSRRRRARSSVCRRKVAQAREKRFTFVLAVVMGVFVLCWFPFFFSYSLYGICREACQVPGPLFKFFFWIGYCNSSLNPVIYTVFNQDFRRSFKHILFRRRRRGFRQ
The experiment in a line: DRUGMATRIX: Adrenergic Alpha-2C radioligand binding (ligand: [3H] MK-912). It counts as cell membranes, Sf9, Membrane. To be noted: sf9.

Another series deals with T2, D(4) dopamine receptor (Homo sapiens, UniProt P21917).
T2 sequence (P21917 whole entry): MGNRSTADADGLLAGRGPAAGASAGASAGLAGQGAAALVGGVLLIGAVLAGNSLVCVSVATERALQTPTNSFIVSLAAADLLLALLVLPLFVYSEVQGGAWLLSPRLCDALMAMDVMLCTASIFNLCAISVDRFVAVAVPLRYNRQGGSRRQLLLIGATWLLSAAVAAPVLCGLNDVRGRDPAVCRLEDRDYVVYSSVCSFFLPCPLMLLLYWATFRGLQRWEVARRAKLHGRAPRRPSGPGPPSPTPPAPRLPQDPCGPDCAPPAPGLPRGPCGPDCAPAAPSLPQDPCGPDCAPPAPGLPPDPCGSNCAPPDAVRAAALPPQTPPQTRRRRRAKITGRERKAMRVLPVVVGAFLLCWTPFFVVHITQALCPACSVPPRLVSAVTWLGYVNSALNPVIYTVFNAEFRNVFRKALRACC
The experiment in a line: DRUGMATRIX: Dopamine D4.2 radioligand binding (ligand: [3H] Spiperone). It counts as cell membranes, CHO-K1, Membrane. To be noted: Not Active = under 50% inhibition at 10 µM.

Series [3] concerns the target Epidermal growth factor receptor (Homo sapiens, UniProt P00533). The experiment in a line: DRUGMATRIX: Protein Tyrosine Kinase, EGF Receptor enzyme inhibition (substrate: Poly(Glu:Tyr)). Type of series: cell-based, Insect cells. To be noted: Not Active = under 50% inhibition at 10 µM.

Epidermal growth factor receptor, sequence (P00533 whole entry): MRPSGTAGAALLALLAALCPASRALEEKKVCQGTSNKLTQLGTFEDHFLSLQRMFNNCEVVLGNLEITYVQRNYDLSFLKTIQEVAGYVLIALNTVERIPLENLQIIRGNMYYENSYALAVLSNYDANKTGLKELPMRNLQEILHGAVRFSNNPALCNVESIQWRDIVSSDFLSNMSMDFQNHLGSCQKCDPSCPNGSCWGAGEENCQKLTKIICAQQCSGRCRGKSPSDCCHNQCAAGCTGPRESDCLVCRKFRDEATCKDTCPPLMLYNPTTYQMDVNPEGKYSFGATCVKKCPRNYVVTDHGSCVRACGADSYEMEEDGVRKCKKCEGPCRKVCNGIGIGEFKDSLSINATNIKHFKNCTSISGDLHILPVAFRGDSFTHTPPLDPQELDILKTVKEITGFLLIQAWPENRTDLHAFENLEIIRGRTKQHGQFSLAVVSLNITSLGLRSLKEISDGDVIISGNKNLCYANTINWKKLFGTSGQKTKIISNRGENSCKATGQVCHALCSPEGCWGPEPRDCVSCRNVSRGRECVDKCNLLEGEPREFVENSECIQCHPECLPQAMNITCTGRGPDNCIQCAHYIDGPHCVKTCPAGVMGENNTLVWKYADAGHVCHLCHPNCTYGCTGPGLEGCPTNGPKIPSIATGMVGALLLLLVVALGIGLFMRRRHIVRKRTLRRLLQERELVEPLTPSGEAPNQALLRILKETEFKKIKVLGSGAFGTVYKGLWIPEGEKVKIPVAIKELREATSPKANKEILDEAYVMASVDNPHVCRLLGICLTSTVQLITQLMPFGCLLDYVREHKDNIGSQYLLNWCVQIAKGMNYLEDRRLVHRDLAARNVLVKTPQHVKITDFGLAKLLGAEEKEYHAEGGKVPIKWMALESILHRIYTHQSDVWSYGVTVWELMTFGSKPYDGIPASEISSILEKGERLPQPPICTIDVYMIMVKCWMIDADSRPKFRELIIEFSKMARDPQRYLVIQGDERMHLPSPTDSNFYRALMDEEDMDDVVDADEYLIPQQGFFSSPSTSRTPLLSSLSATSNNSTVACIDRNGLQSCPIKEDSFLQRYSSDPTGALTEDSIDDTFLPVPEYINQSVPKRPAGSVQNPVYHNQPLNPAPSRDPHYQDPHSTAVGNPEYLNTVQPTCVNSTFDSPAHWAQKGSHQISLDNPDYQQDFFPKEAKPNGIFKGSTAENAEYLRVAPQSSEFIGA
Cytochrome P450 2E1, sequence (P05181 whole entry): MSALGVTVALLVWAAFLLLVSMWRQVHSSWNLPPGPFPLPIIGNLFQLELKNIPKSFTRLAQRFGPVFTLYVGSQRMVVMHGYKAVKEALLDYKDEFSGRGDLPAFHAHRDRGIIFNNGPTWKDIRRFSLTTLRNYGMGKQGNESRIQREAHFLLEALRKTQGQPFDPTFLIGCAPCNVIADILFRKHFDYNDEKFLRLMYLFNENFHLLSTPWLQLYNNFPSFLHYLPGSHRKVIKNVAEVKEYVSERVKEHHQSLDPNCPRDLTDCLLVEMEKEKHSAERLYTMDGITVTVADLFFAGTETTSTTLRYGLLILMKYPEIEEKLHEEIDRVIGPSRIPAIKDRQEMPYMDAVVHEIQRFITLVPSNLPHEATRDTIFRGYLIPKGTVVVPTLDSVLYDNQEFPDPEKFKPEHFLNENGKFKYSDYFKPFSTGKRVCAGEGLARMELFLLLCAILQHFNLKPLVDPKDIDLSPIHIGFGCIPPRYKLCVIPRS
5-hydroxytryptamine receptor 1B, sequence (P28564 whole entry): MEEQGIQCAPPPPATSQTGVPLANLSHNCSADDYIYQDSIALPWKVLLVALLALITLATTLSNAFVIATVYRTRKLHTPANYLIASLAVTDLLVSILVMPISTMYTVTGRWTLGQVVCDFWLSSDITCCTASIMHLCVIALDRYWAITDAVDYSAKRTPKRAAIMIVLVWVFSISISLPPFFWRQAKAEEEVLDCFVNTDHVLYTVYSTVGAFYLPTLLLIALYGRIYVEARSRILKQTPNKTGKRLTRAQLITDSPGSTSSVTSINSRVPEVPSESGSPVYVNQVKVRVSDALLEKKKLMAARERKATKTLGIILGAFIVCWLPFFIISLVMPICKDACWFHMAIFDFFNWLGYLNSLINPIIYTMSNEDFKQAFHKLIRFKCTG

Broadly, the IC50 is the concentration needed to halve the response being measured. The term Ki denotes the dissociation constant of the complex between target and ligand, obtained from inhibition or displacement. On to `COc1cc(N)nc2[nH]c(-c3ccc(F)cc3)c(-c3ccncc3)c12`, for which the IC50 result (in series [1]; on Cytochrome P450 2E1; in series [2]; on D(4) dopamine receptor (cho-k1)) was “Not Active” throughout. Moreover, the Ki result on Cytochrome P450 2E1 is “Not Active”.

Take `CNS(=O)(=O)Cc1ccc2[nH]cc(CCN(C)C)c2c1`: the IC50 entry (at Cytochrome P450 2E1; in series [2]; in series [3] (insect cells); on D(4) dopamine receptor (cho-k1)) was “Not Active” each time. In addition, the Ki entry on Cytochrome P450 2E1 is “Not Active”.

Consider `CCCc1nn(C)c2c(=O)[nH]c(-c3cc(S(=O)(=O)N4CCN(C)CC4)ccc3OCC)nc12`, for which the IC50 entry (in series [1]; on Cytochrome P450 2E1; in series [2]; in series [3] (insect cells); at D(4) dopamine receptor (cho-k1)) was “Not Active” each time. The Ki entry at Cytochrome P450 2E1 is on record as “Not Active”.

Consider `COc1ccc(/C=C/C(=O)Nc2ccccc2C(=O)O)cc1OC`, for which the IC50 entry (in series [1]; on Cytochrome P450 2E1; in series [2]; in series [3] (insect cells); at D(4) dopamine receptor (cho-k1)) was “Not Active” in each case. Also, the Ki entry on Cytochrome P450 2E1 is “Not Active”.

As for `CCOC(N)=O`, the IC50 entry (in series [1]; against Cytochrome P450 2E1; in series [2]; in series [3] (insect cells); on D(4) dopamine receptor (cho-k1)) was “Not Active” throughout. The Ki result at Cytochrome P450 2E1 was “Not Active”.

On to `CC(=O)Nc1nnc(S(N)(=O)=O)s1` [ACETAZOLAMIDE], for which the IC50 entry (in series [1]; at Cytochrome P450 2E1; in series [2]; in series [3] (insect cells); at D(4) dopamine receptor (cho-k1)) was “Not Active” each time. The Ki result on Cytochrome P450 2E1 is reported as “Not Active”.

With `O=c1[nH]c2ccccc2n1CCCN1CCC(n2c(=O)[nH]c3cc(Cl)ccc32)CC1` [DOMPERIDONE], the IC50 entry (in series [1]; in series [3] (insect cells); on D(4) dopamine receptor (cho-k1)) was “Not Active” each time.

On to `CC1=C(CC(=O)O)c2cc(F)ccc2/C1=C\c1ccc(S(C)(=O)=O)cc1` [EXISULIND], for which the IC50 result (in series [1]; against Cytochrome P450 2E1; in series [2]; in series [3] (insect cells); at D(4) dopamine receptor (cho-k1)) was “Not Active” in each case. For the same compound, on Cytochrome P450 2E1, the Ki entry is “Not Active”.

On to `CC(C)OC(=O)C(C)(C)Oc1ccc(C(=O)c2ccc(Cl)cc2)cc1` [FENOFIBRATE], for which the IC50 entry (in series [1]; against Cytochrome P450 2E1; in series [2]; in series [3] (insect cells); at D(4) dopamine receptor (cho-k1)) was “Not Active” in each case. The Ki entry at Cytochrome P450 2E1 is “Not Active”.

Consider `OCCN1CCN(CCCN2c3ccccc3Sc3ccc(C(F)(F)F)cc32)CC1` [FLUPHENAZINE], for which the IC50 is 1910 nM in series [1] (read-out: IC50), “Not Active” against Cytochrome P450 2E1, 40.1 µM in series [3] (read-out: IC50) and 5.88 µM on D(4) dopamine receptor (read-out: IC50). In addition, the Ki in series [1] is 869 nM; on Cytochrome P450 2E1, “Not Active”; at D(4) dopamine receptor (read-out: Ki) it was 2060 nM.

In the case of `CN1C2CCCC1CC(NC(=O)c1nn(C)c3ccccc13)C2` (centres undefined) [GRANISETRON], the IC50 entry (in series [1]; against Cytochrome P450 2E1; in series [2]; in series [3] (insect cells); at D(4) dopamine receptor (cho-k1)) was “Not Active” each time. Also, the Ki entry on Cytochrome P450 2E1 is given as “Not Active”.

As for `Nc1nc2c(c(=O)[nH]1)N(C=O)C(CNc1ccc(C(=O)N[C@@H](CCC(=O)O)C(=O)O)cc1)CN2` (some centres undefined) [LEUCOVORIN], the IC50 entry (in series [1]; on Cytochrome P450 2E1; in series [2]; in series [3] (insect cells); on D(4) dopamine receptor (cho-k1)) was “Not Active” in each case. On Cytochrome P450 2E1, the Ki entry is given as “Not Active”.

As to `C[C@@H](O)[C@H]1C(=O)N2C(C(=O)O)=C(S[C@@H]3CN[C@H](C(=O)N(C)C)C3)[C@H](C)[C@H]12` [MEROPENEM], the IC50 result (in series [1]; against Cytochrome P450 2E1; in series [2]; in series [3] (insect cells); at D(4) dopamine receptor (cho-k1)) was “Not Active” each time. In addition, the Ki result on Cytochrome P450 2E1 is reported as “Not Active”.

For `CC[C@@H](CO)NC(=O)[C@@H]1C=C2c3cccc4c3c(cn4C)C[C@H]2N(C)C1` [METHYSERGIDE], the IC50 in series [1] (read-out: IC50) was 177 nM; against Cytochrome P450 2E1, “Not Active”; in series [2], “Not Active”; in series [3] (insect cells), “Not Active”; on D(4) dopamine receptor (cho-k1), “Not Active”. Also, the Ki in series [1] was 108 nM; at Cytochrome P450 2E1 it was “Not Active”.

As to `CCN(CC)CC#CCOC(=O)C(O)(c1ccccc1)C1CCCCC1` (centres undefined) [OXYBUTYNIN], the IC50 entry (in series [1]; on Cytochrome P450 2E1; in series [2]; in series [3] (insect cells); on D(4) dopamine receptor (cho-k1)) was “Not Active” each time. The Ki entry on Cytochrome P450 2E1 is given as “Not Active”.

On to `O=P(O)(O)C(O)(Cc1cccnc1)P(=O)(O)O` [RISEDRONIC ACID], for which the IC50 result (in series [1]; against Cytochrome P450 2E1; in series [2]; in series [3] (insect cells); at D(4) dopamine receptor (cho-k1)) was “Not Active” each time. In addition, the Ki entry at Cytochrome P450 2E1 is “Not Active”.

Consider `CN(CCOc1ccc(CC2SC(=O)NC2=O)cc1)c1ccccn1` (centres undefined) [ROSIGLITAZONE], for which the IC50 entry (in series [1]; at Cytochrome P450 2E1; in series [2]; in series [3] (insect cells); on D(4) dopamine receptor (cho-k1)) was “Not Active” in each case. The Ki result at Cytochrome P450 2E1 is “Not Active”.

Regarding `C=C(C)[C@H]1Cc2c(ccc3c2O[C@@H]2COc4cc(OC)c(OC)cc4[C@@H]2C3=O)O1` [ROTENONE], the IC50 result (in series [1]; on Cytochrome P450 2E1; in series [2]; in series [3] (insect cells); on D(4) dopamine receptor (cho-k1)) was “Not Active” in each case. The Ki result on Cytochrome P450 2E1 was “Not Active”.

Take `C#CCN(C)[C@H](C)Cc1ccccc1` [SELEGILINE]: the IC50 result (in series [1]; at Cytochrome P450 2E1; in series [2]; in series [3] (insect cells); on D(4) dopamine receptor (cho-k1)) was “Not Active” each time. Further, the Ki result at Cytochrome P450 2E1 is listed as “Not Active”.

For the compound `CO[C@H]1C[C@@H]2CC[C@@H](C)[C@@](O)(O2)C(=O)C(=O)N2CCCC[C@H]2C(=O)O[C@H]([C@H](C)C[C@@H]2CC[C@@H](O)[C@H](OC)C2)CC(=O)[C@H](C)/C=C(\C)[C@@H](O)[C@@H](OC)C(=O)[C@H](C)C[C@H](C)/C=C/C=C/C=C/1C` [SIROLIMUS], the IC50 entry (in series [1]; at Cytochrome P450 2E1; in series [2]; in series [3] (insect cells); at D(4) dopamine receptor (cho-k1)) was “Not Active” throughout. For the same compound, the inhibition constant (Ki) result on Cytochrome P450 2E1 is “Not Active”.

On to `CN[C@@H]1[C@H](O)[C@H](NC)[C@H]2O[C@@]3(O)C(=O)C[C@@H](C)O[C@H]3O[C@@H]2[C@H]1O` [SPECTINOMYCIN], for which the IC50 result (in series [1]; against Cytochrome P450 2E1; in series [2]; in series [3] (insect cells); at D(4) dopamine receptor (cho-k1)) was “Not Active” throughout. Moreover, on Cytochrome P450 2E1, the Ki result is on record as “Not Active”.

Consider `Nc1ccc(S(=O)(=O)Nc2ncccn2)cc1` [SULFADIAZINE], for which the IC50 entry (in series [1]; on Cytochrome P450 2E1; in series [2]; in series [3] (insect cells); at D(4) dopamine receptor (cho-k1)) was “Not Active” each time. Besides, the Ki result on Cytochrome P450 2E1 is recorded as “Not Active”.

Regarding `COc1ncnc(NS(=O)(=O)c2ccc(N)cc2)c1OC` [SULFADOXINE], the IC50 entry (in series [1]; against Cytochrome P450 2E1; in series [2]; in series [3] (insect cells); at D(4) dopamine receptor (cho-k1)) was “Not Active” each time. Besides, the Ki result on Cytochrome P450 2E1 is on record as “Not Active”.

Consider `CCS(=O)(=O)CCn1c([N+](=O)[O-])cnc1C` [TINIDAZOLE], for which the IC50 entry (in series [1]; in series [2]; in series [3] (insect cells); on D(4) dopamine receptor (cho-k1)) was “Not Active” throughout.

Take `O=c1n(CCCN2CCN(c3cccc(Cl)c3)CC2)nc2ccccn12` [TRAZODONE]: the IC50 is 1360 nM in series [1] (read-out: IC50), “Not Active” at Cytochrome P450 2E1, “Not Active” in series [3] (insect cells) and “Not Active” at D(4) dopamine receptor (cho-k1). Further, the Ki in series [1] is 830 nM; on Cytochrome P450 2E1 it was “Not Active”.

Consider `COc1ccc(CN2CCNCC2)c(OC)c1OC` [TRIMETAZIDINE], for which the IC50 entry (in series [1]; in series [2]; in series [3] (insect cells); at D(4) dopamine receptor (cho-k1)) was “Not Active” throughout.

For `Cc1cn([C@H]2C[C@H](N=[N+]=[N-])[C@@H](CO)O2)c(=O)[nH]c1=O` [ZIDOVUDINE], the IC50 entry (in series [1]; against Cytochrome P450 2E1; in series [2]; on D(4) dopamine receptor (cho-k1)) was “Not Active” throughout. Further, the Ki result at Cytochrome P450 2E1 was “Not Active”.
